Data on five compounds can be found in publication PMC3646298 (Pharmaceutical research, 2012).

Read-outs that look alike come from different tables or passages of the source.

Series [1] concerns PC-3/TxR. The experiment in a line: SRB cytotoxicity assay in paclitaxel-resistant PC-3/TxR. The series is classed as cell-based, human.
For the next series, the system named is PC-3. Description: Apoptosis. In kind it is cell-based, human. Particulars: PC-3, 0.8–600 nmol/L, 24 h.
Series [2] relates to PC-3/TxR. The experiment in a line: Apoptosis. In kind it is cell-based, human. The settings on record: 0.8–600 nmol/L, 24 h.
The next series concerns PC-3 tumors. The experiment in a line: PC-3 tumor xenograft study. The series is classed as in vivo, nude mice. The settings on record: PC-3 xenograft, day 1 and 9, end point day 19.
Another series has as its system PC-3/TxR tumors. The experiment in a line: Paclitaxel-resistant PC-3/TxR tumor xenograft study. In kind it is in vivo, nude mice. The settings on record: for Body weight End / TGI / Body weight Start: PC-3/TxR xenograft.
The next series has as its system LNCaP. Particulars: read-out: Cytotoxicity IC50, ref Ahn et al., MCT 9:2959, 2010 ([33]); cited from earlier work.
The next series has as its system Du-145. Particulars: read-out: Cytotoxicity IC50, ref Ahn et al., MCT 9:2959, 2010 ([33]); cited from earlier work.
The subject of series [3] is PPC-1. Particulars: read-out: Cytotoxicity IC50, ref Ahn et al., MCT 9:2959, 2010 ([33]); cited from earlier work.
Series [4] has as its target colchicine-binding site on tubulin (Sus scrofa, UniProt P02550+P02554). The experiment in a line: Competitive mass spectrometry binding assay. Also noted: species or system porcine. The settings on record: tubulin 1 mg/mL, competitor 0.2–200 μM.
The conditions of series [5]: cited from earlier work.
Series [6] concerns PPC-1. Description: SRB cytotoxicity assay in PPC-1. The series is classed as cell-based. The settings on record: Homo sapiens, PPC-1, 96 h, read-out: Cytotoxicity IC50. (In general: The SRB assay estimates cell density from bound dye.)
The next series concerns U87MG. Description: SRB cytotoxicity assay in U87MG glioma. The settings on record: read-out: Cytotoxicity IC50, 96 h treatment, mean ± SD, N=3. In kind it is cell-based, human.
Series [7] in a line: Paclitaxel-resistant PC-3/TxR tumor xenograft study. The series is classed as in vivo, nude mice. The settings on record: male, athymic nude, mouse, tumor, po, 30 mg/kg.
The nature of series [8]: in vivo. Particulars: male (mice), female (rats, dogs), ICR (mouse), Sprague-Dawley (rat), beagle (dog), po.
A short description of series [9]: in vivo. Particulars: female, beagle, dog, plasma, po, 5 mg/kg.
A further series is described as follows: in vitro. The settings on record: human, Caco-2.
Series [10] in a line: Pharmacokinetic study in rats. The settings on record: female, Sprague-Dawley, rat, plasma, po, 10 mg/kg.
The mark [11] stands for this setting: IV 10 mg/kg, day 1 and 9, end point day 19.
Setting [12] is: IV 20 mg/kg, day 1 and 9, end point day 19.
Setting [13] is: PO 10 mg/kg, b.i.d×5/w, end point day 26.

As usually defined, the IC50 is the midpoint of a concentration-inhibition curve. A word on the TGI: it is the reduction of tumour growth relative to the control group. Low values mean little slowing of growth, high ones much slowing of growth. For `CC(=O)O[C@@]12CO[C@@H]1C[C@H](O)[C@@]1(C)C(=O)[C@H](O)C3=C(C)[C@@H](OC(=O)[C@H](O)[C@@H](NC(=O)OC(C)(C)C)c4ccccc4)C[C@@](O)([C@@H](OC(=O)c4ccccc4)[C@H]21)C3(C)C` [Docetaxel], the “Resistance factor (IC50 in PC-3/TxR compared with PC-3)” value in the series with PC-3/TxR [1] is listed as 15. Also, the IC50 in the series on PC-3/TxR [1] (Homo sapiens, PC3-TxR, 96 h, read-out: Cytotoxicity IC50) was 18 ± 0.7 nM; in the series on LNCaP it was 4.7 ± 1.3 nM; in the series on Du-145, 5.2 ± 1 nM; in the series with PPC-1 [3] it was 2.7 ± 1 nM. The entries for the “induction of cell apoptosis (DNA histone complex formation)” value with PC-3 and with PC-3/TxR [2] were “potently induced cell apoptosis” and “substantially weaker”, respectively. The “Body weight End” value was 24 ± 2 g in the series with PC-3 tumors (IV 10 mg/kg), 24 ± 3 g in the series with PC-3 tumors (IV 20 mg/kg), 25 ± 2 g in the series with PC-3/TxR tumors (setting [11]) and 25 ± 4 g with PC-3/TxR tumors (setting [12]). In addition, the TGI is listed as 14% in the series on PC-3/TxR tumors (setting [11]) and 56% in the series with PC-3/TxR tumors (setting [12]).

As for `CC[C@]1(O)C[C@@H]2CN(CCc3c([nH]c4ccccc34)[C@@](C(=O)OC)(c3cc4c(cc3OC)N(C)[C@H]3[C@@](O)(C(=O)OC)[C@H](OC(C)=O)[C@]5(CC)C=CCN6CC[C@]43[C@@H]65)C2)C1` [Vinblastine], in series [4], the “competition with colchicine for tubulin binding” value is on record as “did not inhibit colchicine binding to tubulin”.

In the case of `COc1cc(C(=O)c2csc(-c3ccccc3)n2)cc(OC)c1OC` [SMART-H, 4-(3,4,5-trimethoxybenzoyl)-2-phenyl-thiazole], in [5], the neurotoxicity entry is reported as “did not find any signs of obvious neurotoxicity”.

Turning to `CC(=O)O[C@H]1C(=O)[C@@]2(C)[C@H]([C@H](OC(=O)c3ccccc3)[C@]3(O)C[C@H](OC(=O)[C@H](O)[C@@H](NC(=O)c4ccccc4)c4ccccc4)C(C)=C1C3(C)C)[C@]1(OC(C)=O)CO[C@@H]1C[C@@H]2O` [Paclitaxel], in the series on PPC-1 [6], the half-inhibitory concentration (IC50) stood at 23 ± 0.8 nM.

One may read the bioavailability as the share of a dose that reaches the circulation, judged against a reference dose that is usually intravenous. One may read the Papp A→B as how fast a substance crosses the layer from the apical side. A high value points to fast passage. Turning to `COc1cc(C(=O)c2csc(Nc3ccc4[nH]ccc4c3)n2)cc(OC)c1OC` [IAT, (2-(1H-indol-5-ylamino)-thiazol-4-yl)(3,4,5-trimethoxyphenyl)methanone], the IC50 in the series on U87MG is 22 ± 30 nM. Moreover, the “competition with colchicine for tubulin binding” value in series [4] is given as “competed effectively with colchicine for tubulin binding”. Further, the “induction of cell apoptosis (DNA histone complex formation)” value with PC-3 and in the series on PC-3/TxR [2] was “equally potent in their ability to induce cell apoptosis” throughout. Moreover, the Kp at 1 h in series [7] was determined as 0.43 ± 0.33. In addition, the “Body weight Start” value with PC-3/TxR tumors (PO 10 mg/kg, b.i.d×5/w) came to 29 ± 2 g; with PC-3/TxR tumors (PO 30 mg/kg, b.i.d×5/w) it was 29 ± 3 g. Further, the “Body weight End” value in the series on PC-3/TxR tumors (setting [13]) was 26 ± 3 g; with PC-3/TxR tumors (PO 30 mg/kg, b.i.d×5/w, end point day 26), 30 ± 2 g. The same compound displayed a TGI with PC-3/TxR tumors (setting [13]) of 59%. Also, in the series with PC-3/TxR tumors (paclitaxel-resistant prostate cancer xenograft, treated orally at doses of 3–30 mg/kg), the Tumor growth inhibition entry is listed as “greater than 100%”. Further, the bioavailability is 24 to 36% in the series “in vivo [8]”, 36% in the series “in vivo [9]” and 24% in series [10]. In “in vitro”, this compound yielded a Papp A→B of 99 ×10⁻⁶ cm/s.
